{"source": "paper PMC3237458", "about": "“PEGylation Potentiates the Effectiveness of an Antagonistic Peptide That Targets the EphB4 Receptor with Nanomolar Affinity” (PLoS ONE, 2011)", "key": {"EphB4": {"target": "T1, EphB4 (Mus musculus, UniProt P54761)", "T1 construct": "tyrosine phosphorylation of endogenous EphB4 expressed in B16 melanoma cells; host or cells: B16-F10-luc-G5 melanoma cells", "T1 sequence (P54761 16-987)": "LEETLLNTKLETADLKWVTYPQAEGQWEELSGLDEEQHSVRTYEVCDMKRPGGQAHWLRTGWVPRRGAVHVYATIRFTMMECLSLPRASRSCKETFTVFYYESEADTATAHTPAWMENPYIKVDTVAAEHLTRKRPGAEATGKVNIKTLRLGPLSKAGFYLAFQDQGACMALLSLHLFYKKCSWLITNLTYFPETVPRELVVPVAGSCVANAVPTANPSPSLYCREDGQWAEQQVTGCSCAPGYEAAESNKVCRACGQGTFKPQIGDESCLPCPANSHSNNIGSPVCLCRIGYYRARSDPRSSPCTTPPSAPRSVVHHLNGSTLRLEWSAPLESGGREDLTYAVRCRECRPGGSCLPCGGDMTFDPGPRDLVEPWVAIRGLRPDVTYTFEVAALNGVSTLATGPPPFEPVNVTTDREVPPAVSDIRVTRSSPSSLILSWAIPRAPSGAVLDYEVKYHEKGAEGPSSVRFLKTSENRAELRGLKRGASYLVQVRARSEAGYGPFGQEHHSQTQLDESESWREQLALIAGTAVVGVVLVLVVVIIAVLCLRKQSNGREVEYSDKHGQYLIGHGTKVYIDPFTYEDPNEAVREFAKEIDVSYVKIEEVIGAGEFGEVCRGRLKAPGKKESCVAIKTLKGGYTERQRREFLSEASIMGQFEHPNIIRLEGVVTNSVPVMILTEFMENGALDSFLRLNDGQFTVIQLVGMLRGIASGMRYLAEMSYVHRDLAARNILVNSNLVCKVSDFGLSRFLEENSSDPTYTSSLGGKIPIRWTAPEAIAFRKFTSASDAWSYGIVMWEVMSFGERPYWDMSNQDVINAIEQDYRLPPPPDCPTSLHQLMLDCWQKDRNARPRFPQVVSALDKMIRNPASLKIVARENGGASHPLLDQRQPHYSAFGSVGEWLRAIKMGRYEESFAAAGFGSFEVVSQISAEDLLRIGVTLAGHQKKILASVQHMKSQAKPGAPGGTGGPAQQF", "assay": "Ephrin-B2-induced EphB4 tyrosine phosphorylation in B16 melanoma cells (immunoprecipitation/immunoblot)", "type": "cell-based", "conditions": "24 hours pretreatment, Figure 4A", "experimental": "B16-F10-luc-G5 melanoma cells, which endogenously express EphB4, were serum starved for 1–3 hours in Eagle's MEM/EBSS containing 0.5% FBS and incubated for 15 min or 24 hours with different concentrations of PEG-TNYL-RAW. The cells were then stimulated for 20 min with 1.5 µg/ml ephrin-B2 Fc, which had been preclustered with a 3 fold excess of an anti-Fc antibody, in the continued presence of the peptide. HUVECs, EMCs or a 1∶1 mixture of the two cell types were plated for 20 hours in complete medium in the presence of PEG or PEG-TNYL-RAW. Medium 200 was used for HUVECs and HUVECs and EMCs co-cultures, DMEM was used for EMCs. The cells were lysed in modified RIPA buffer (1% Triton X-100, 1% Na deoxycholate; 0.1% SDS; 20 mM Tris; 150 mM NaCl; 1 mM EDTA) containing 10 µM NaF, 1 µM sodium pervanadate and protease inhibitors. Protein concentrations were measured using the BCA protein assay kit (Pierce Biotechnology, Rockford, IL). For immunoprecipitations, cell lysates were incubated with 20 µg of an anti-EphB4 antibody made to a GST fusion protein of the EphB4 SAM domain and carboxy-terminal tail immobilized on GammaBind Sepharose beads (GE Healthcare Life Sciences). […]"}, "EphB4-ephrin-B2 binding": {"target": "EphB4-ephrin-B2 binding", "conditions": "ELISA assays; read-out: IC50 for inhibition of EphB4-ephrin-B2 binding; cited from earlier work", "description": "An explanation for the discrepancy in the potency of the peptide in biochemical and cell culture assays could be that TNYL-RAW is susceptible to degradation by proteases present in cell culture medium. For example, trypsin-like proteases are l ..."}, "[1]": {"assay": "Peptide stability in cell culture medium / conditioned medium (ELISA of functional peptide)", "type": "in vitro ADME", "experimental": "PC3 prostate cancer cells were grown in RPMI 1640 medium (Mediatech, Inc, Herndon, VA) with 10% fetal bovine serum (FBS) (Hyclone, Logan, UT), penicillin and streptomycin. B16-F10-luc-G5 melanoma cells (Caliper Life Sciences, Hopkinton, MA) were grown in Eagle's MEM with Earle's Balanced Salts (EBSS) (Hyclone, Logan, UT) supplemented with 10% FBS, non essential amino acids (Hyclone, Logan, UT), L-glutamine, sodium pyruvate (Hyclone, Logan, UT), MEM vitamin solution (Life Technologies-Invitrogen), penicillin and streptomycin (Omega Scientific, Tarzana, CA). HUVECs (Cascade Biologics, Portland, OG) were grown in Medium 200 supplemented with low serum growth supplements (Cascade Biologics), 10% FBS, penicillin and streptomycin, and fungizone (Omega Scientific, Tarzana, CA). Rat EMCs were grown in DMEM (Mediatech, Inc, Herndon, VA) supplemented with 10% FBS, penicillin and streptomycin. The different modified forms of TNYL-RAW at a concentration of 25 nM were added to fresh medium or culture medium conditioned by the cells for 1–4 days. The culture medium was collected after different time periods and diluted 1∶10 in ELISA wells. The amount of intact TNYL-RAW peptide remaining was measured by using the ELISA assays described above for measurement of binding affinity. In some experiments, the peptide was incubated at 37°C with PC3 cell conditioned medium collected from the cells in the absence or in the presence of protease inhibitors (10 µg/ml aprotinin, 5 µg/ml pepstatin, 10 µg/ml leupeptin and 0.75 mM or phenylmethylsulfonylfluoride (PMSF))."}}, "note": "pIC50: −log10 of the molar value. Square brackets hold non-standard residues; d marks the D form. Peptide text beside a SMILES is read from it. * marks the point of attachment. Biotin = O=C1N[C@H]2[C@H](CS[C@H]2CCCCC(=O)*)N1; Ahx = NCCCCCC(=O)O", "data": [{"smiles": "CC[C@H](C)[C@H](NC(=O)[C@@H]1CCCN1C(=O)CNC(=O)[C@H](CC(N)=O)NC(=O)[C@@H]1CCCN1C(=O)[C@H](CO)NC(=O)[C@H](Cc1ccccc1)NC(=O)[C@H](CC(C)C)NC(=O)[C@H](Cc1ccc(O)cc1)NC(=O)[C@H](CC(N)=O)NC(=O)[C@@H](N)[C@@H](C)O)C(=O)N[C@@H](C)C(=O)N[C@@H](CCCNC(=N)N)C(=O)N[C@@H](C)C(=O)N[C@@H](Cc1c[nH]c2ccccc12)C(=O)NCCCCCC(=O)N[C@@H](CCCCNC(=O)CCCC[C@@H]1SC[C@@H]2NC(=O)N[C@@H]21)C(N)=O", "note": "[TNYL-RAW] (H-TNYLFSPNGPIARAW[Ahx]K(Biotin)-NH2; N-terminus and C-terminus assumed)", "values": [{"measurement": "Inhibitory activity on EphB4 phosphorylation after 24 hours of incubation with cells", "setting": "EphB4", "result": "ineffective"}, {"measurement": "pIC50", "setting": "EphB4-ephrin-B2 binding", "result": "~7.82"}, {"measurement": "Peptide loss in culture medium of other cell types", "setting": "[1]; B16 melanoma cells, HUVECs, EMCs (Figure S1), C6 glioma cells and BPH1 prostate epithelial cells (data not shown), biotinylated TNYL-RAW, ELISA", "result": "Rapid TNYL-RAW loss"}, {"measurement": "Half-life in PC3 cell culture medium", "setting": "[1]; biotinylated TNYL-RAW with PC3 prostate cancer cells grown in the same medium for several days, depends on cell density and time in medium, ELISA capture on EphB4 Fc, streptavidin-HRP, Figure 1A", "result": "less than an hour to several hours"}, {"measurement": "Half-life with cells in fresh culture medium versus medium used for 3 days", "setting": "[1]; biotinylated TNYL-RAW, PC3 cells, medium freshly replaced before adding peptide, ELISA, Figure 1A", "result": "had a longer half-life"}, {"measurement": "Peptide loss in PC3 cell conditioned medium with protease inhibitors", "setting": "[1]; conditioned medium without cells, 37°C, aprotinin, leupeptin, pepstatin and PMSF, ELISA, Figure 1B", "result": "blocked by a mixture of protease inhibitors"}]}]}
